These results are taken from patent publication US8222298B2, “Methods of correcting imbalance between bone resorption and bone formation and kits and compositions therefor” (CHU Sainte-Justine, priority 2007, dated 2012).

Series [1] relates to RAW264.7 cells. As to the kind of experiment: Cell proliferation by tritiated thymidine incorporation. It is filed as cell-based, mouse. To be noted: 10^-6M 4-P-PDOT with RANKL, 2.5 days. The method, then:
After 24 hour attachment, RAW264.7 cells were serum-starved overnight and then grown for 2.5 days in culture medium containing RANKL and melatonin (10^−7 or 10^−6M), or melatonin (10^−6M) and a melatonin receptor non-specific antagonist, luzindole (10^−8M), or melatonin (10^−6M) and 4-P-PDOT (10^−6M), or luzindole (10^−6M), or 4-P-PDOT (10^−6M) alone. Thymidine incorporation was assayed by the addition of 0.02 μCi/μL of tritiated thymidine to the medium 8 hours before cell harvest. Cells were then washed twice with ice-cold PBS and three times with cold 5% trichloroacetic acid. Cells were lysed in a mixture of 0.5N NaOH and 0.5% SDS and radioactivity of the lysates determined using a beta-counter.
Background: Incorporation of labelled thymidine or its analogues reports DNA synthesis.

The test system of series [2] is adenylyl cyclase activity of forskolin-stimulated RAW 264.7 cells. Nature of the series: cAMP production in forskolin-stimulated RAW264.7 cells (enzyme immunoassay). To be noted: increasing doses, 10^-4M forskolin, 30 minutes at 37° C., no RANKL. It is filed as cell-based, mouse. As to the method: RAW264.7 cells were grown in culture medium without RANKL until confluence (7 days). Cells were then incubated with 10^−4M of forskolin in presence of various concentrations of melatonin (FIG. 9, panel A), 4-P-PDOT (FIG. 9, panel B) or both (FIG. 9, panel C). Concentrations ranged from 10^−11 to 10^−5M for melatonin and from […] to 10^−4M for 4-P-PDOT. In the double treatment group, cells were treated with increasing concentrations of melatonin (10^−11 to 10^−5M) to which 10^−6M of 4-P-PDOT was added. After 30 minutes incubation at 37° C., cells were lysed in TRIS-EDTA buffer supplemented with protease and phosphodiesterase inhibitors at 4° C. The cAMP content was determined in duplicate in 200 μL aliquot of the supernatant using an enzyme immunoassay kit. […]
A general note: Cyclic AMP is a second messenger, typically raised through Gs and lowered through Gi signalling.

The next series has as its system male C57BL/6 mice. As to the kind of experiment: Femur section histology (TRAP and Goldner staining) in treated mice. Type of series: in vivo, mouse. The settings on record: 10 mg/kg intraperitoneally three times a week, 4 weeks. The method, then:
The effect of 4-P-PDOT on the formation of bones has also been tested using 4-week old male C57BL/6 mice following weaning. Mice were injected intraperitoneally with 10 mg/kg of 4-P-PDOT three times a week for 4 weeks (28 days). After this period, femur sections were stained to quantify tartrate-resistant acidic phosphatase- (TRAP-) positive osteoclasts (i.e. “active” osteoclasts). […] A Goldner staining was also performed on the femur sections in order to quantify the total number of osteoclasts.

In series [3] the test system is RAW264.7 cells. As to the kind of experiment: Osteoclast differentiation measured by TRAP staining of RANKL-treated RAW264.7 cells. Type of series: cell-based, mouse. To be noted: 2.5 or 6 days. The method, then:
Cellular model RAW264.7 (mouse macrophage cell line, ATCC # TIB-71). These cells differentiate in osteoclast-like cells upon addition of receptor activator of nuclear factor-kappaB ligand (RANKL). Cell differentiation usually occurs within two days. Cells were studied at 2.5 (early stage), 6 and 10 days (late stage) following RANKL addition. Experimental treatments: In some experiments, 4-P-PDOT was added to the cells at the same time as RANKL at a concentration of 10^−6M. Cells cultured with RANKL only served as controls. In order to assess osteoclastogenesis, RAW264.7 cells were cultured with RANKL for 2.5 or 6 days with and without 10^−6M of 4-P-PDOT. RAW264.7 cells were fixed with paraformaldehyde and stained for TRAP activity (marker of active osteoclasts) at 2.5 and 6 days of differentiation. Positive-stained cells with more than 3 nuclei were counted in eight different microscopic fields done in quadruplicate. Results are presented in FIGS. 3A and B for the 2.5 or 6 days experiments, respectively. […] The effect of melatonin on osteoclastogenesis and osteoclast function was assessed with the same methods as those described in Examples 2 and 3 above except that cells were grown in the presence of 10^−9M of melatonin in addition to RANKL. In some experiments, melatonin was added along with 10^−6M of 4-P-PDOT. Cells treated with RANKL alone served as controls.

The subject of series [4] is RAW264.7 cells. Nature of the series: Cell apoptosis by DeadEnd fluorometric TUNEL system. The settings on record: 10^-6M 4-P-PDOT with RANKL, 6 days. It is filed as cell-based, mouse. As to the method:
RAW264.7 cells were grown in culture medium with RANKL for 6 days with or without 10^−6M of 4-P-PDOT. Cells were fixed in 3.7% of paraformaldehyde and permeabilized with 0.2% Triton™-X-100. A subset of cells were treated with DNase for 10 minutes at room temperature and served as positive controls. Cell apoptosis was determined using the DeadEnd™ fluorometric TUNEL system. This method measures fragmented DNA through the incorporation of fluorescent-labeled d-UTP. Permeabilized cells were incubated in equilibration buffer with a nucleotide mix and the enzyme that catalyzes the reaction for 1 hour at 37° C. Negative controls were incubated without the enzyme. After several rinses in SSC and PBS, cells were mounted and visualized by fluorescence microscopy.

A further series deals with RANK. Nature of the series: RANK expression by RT-PCR in RAW264.7 cell-derived osteoclasts. Type of series: cell-based, mouse. The settings on record: RT-PCR after 6 days of treatment; 10^-9M melatonin, 10^-6M 4-P-PDOT. The method, then: The effect of melatonin and of 4-P-PDOT on the expression of various genes involved in osteoclast differentiation and activity was evaluated by RT-PCR after 6 days of treatment.

For a further series, the system named is male C57Bl/6j mice. As to the kind of experiment: Low-BMD mouse model: weight gain and bone densitometry over 35 days. It is filed as in vivo. To be noted: 10 mg/kg intraperitoneally three times a week, first 35 days. As to the method:
In parallel, control animals received injections of a solution made of water and ethanol (20%). During this period, animals were subjected to weekly bone densitometric measurements (BMD and bone mineral content (BMC)) with a PixiMus™ II bone densitometer, and blood and urine collection. Scan of individual spine, long bones (femurs), were performed. Scans of tibiae, radius and mandible were also performed. To monitor bone formation rate, 25 mg/kg of tetracycline hydrochloride was injected on days 10 and 20 following the beginning of the injections. Bone histomorphometry for bone formation and resorption static and dynamic parameters were also measured. The biochemical markers used are alkaline phosphatase for bone formation, and urinary deoxypyridinoline for bone resorption.

The subject of another series is RAW 264.7 cells. Nature of the series: Bone resorption assay on resorbable bone analog (BioCoat Osteologic discs). To be noted: 10^-9M melatonin with RANKL, 10 days culture. Type of series: cell-based, mouse. The method, then: Osteoclast activity was determined using a resorbable bone analog (BioCoat™ Osteologic™ discs, BD Biosciences). RAW 264.7 cells were plated on 16-well plates coated with this analog. 24 hours post-plating, cells were treated with RANKL alone or with RANKL+10^−6M of 4-P-PDOT for a period of 10 days. In another set of experiments, 10^−6M of 4-P-PDOT was added after 6 days of culture with RANKL and cells were cultured for an additional 4 days in order to examine the effects of 4-P-PDOT on more mature cells. At the end of the culture period, cells were detached with bleach and bone analog stained with 5% silver nitrate according to manufacturer's instructions to reveal the presence of resorbed bone area (resorption pits). The number of pits and the area of resorbed bone were quantified in 8 microscopic fields in duplicate using Bioquant™ software. The effect of melatonin on osteoclastogenesis and osteoclast function was assessed with the same methods as those described in Examples 2 and 3 above except that cells were grown in the presence of 10^−9M of melatonin in addition to RANKL. In some experiments, melatonin was added along with 10^−6M of 4-P-PDOT. Cells treated with RANKL alone served as controls.

Take `CCC(=O)NC1Cc2ccccc2C(c2ccccc2)C1` (stereo not shown) [4-P-PDOT, 4-phenyl-2-propionamidotetralin]: the “cell proliferation, treated vs. untreated cells” value in the series on RAW264.7 cells [1] is listed as “comparable”. Also, the cAMP production result in series [2] was “cAMP production increases”. Further, in the series with male C57BL/6 mice, the “number of active (TRAP-positive) osteoclasts in femur sections vs control mice” value is reported as “significant reduction”, the “number of total osteoclasts (Goldner staining) in femur sections” value is on record as “increased”, the “reduction in the relative number of active osteoclasts vs vehicle-treated mice” value is given as “about 3 fold” and the “relative number of total osteoclasts vs vehicle-treated mice” value is on record as “increased”. The “trabecular bone (Goldner staining) in femur sections” value in the series on male C57BL/6 mice is “increased”. In the series with RAW264.7 cells [3] (10^-6M 4-P-PDOT with RANKL), the “number of TRAP+ cells (osteoclast differentiation)” value is listed as “reduces the number of TRAP+ cells”. Besides, the “apoptosis, treated vs. untreated cells” value in the series on RAW264.7 cells [4] is on record as “comparable”. Also, the “RANK's expression” value in the series on RANK is “significant decrease”. In the series on male C57Bl/6j mice, the “bone mineral accretion at the spine and whole body level vs vehicle-injected animals” value is “increase”; the “weight gain vs vehicle-injected animals” value is “increase”.
As to `COc1ccc2[nH]cc(CCNC(C)=O)c2c1` [melatonin], the cAMP production entry in series [2] is “inhibited”. In addition, the “effect on osteoclastogenesis (TRAP-positive cells)” value in the series on RAW264.7 cells [3] (10^-9M melatonin with RANKL) is on record as “did not have a significant effect”. Moreover, the “RANK's expression” value with RANK is listed as “significant decrease”. Moreover, the “bone resorption (resorption pits, resorbed area)” value in the series on RAW 264.7 cells is given as “significantly reduced bone resorption”.
